Experimental data taken from patent US11351172B2, “Pharmaceutical composition and use for applying ribociclib in phosphodiesterase 4-mediated disease treatment of patient and inhibition of phosphodiesterase 4 activity” (Chang Gung University, priority 2019, dated 2022).

Tests used:
PDE4C = target: T1, PDE4C (Homo sapiens, UniProt Q08493); test: PDE enzymatic activity, HTRF cAMP dynamic test; type: biochemical; conditions: 3 μM, 10 μM and 30 μM; compared with DMSO control; n=6; FIG. 1C
T1 construct: purchased BPS bioscience
Protocol: (§1) Enzymatic activities of PDE subtypes were analyzed according to the user manual of HTRF® package insert cAMP dynamic tests (Cisbio bioassays, catalog number 62AM4PEB). Ribociclib was dissolved in DMSO (as solvent) and then added to PDE assay buffer which contains PDE4A, PDE4B, PDE4C, PDE4D, PDE3B or PDE7A (sold by BPS bioscience). The final concentration of Ribociclib was 0.1 to 30 μM. Then, the mixtures were incubated for 10 minutes at 37° C. PDE assay buffer which was added by DMSO (solvent, marked as “−” in FIGS. 1A-1F) instead of Ribociclib was as a control in this experiment. 60 nM of cAMP was added to each reagent and then incubated for 45 minutes at 37° C. After incubation, cAMP-d2 and anti-cAMP-cryptate were added to each reagent and react at room temperature for 1 hour away from light. Finally, the reagents were quantified by the luminometer (TECAN infinite 200 Pro) to detect enzymatic activities of PDE subtypes.

PDE7A = target: T2, PDE7A (Homo sapiens, UniProt Q13946); test: PDE enzymatic activity, HTRF cAMP dynamic test; type: biochemical; conditions: 0.1 to 30 μM; FIG. 1F
T2 construct: purchased BPS bioscience
Protocol: as §1

PDE4A = target: T3, PDE4A (Homo sapiens, UniProt P27815); test: PDE enzymatic activity, HTRF cAMP dynamic test; type: biochemical; conditions: 0.1 μM, 0.3 μM, 1 μM, 3 μM and 10 μM; compared with DMSO control; n=6; FIG. 1A
T3 construct: purchased BPS bioscience
Protocol: as §1

PDE3B = target: T4, PDE3B (Homo sapiens, UniProt Q13370); test: PDE enzymatic activity, HTRF cAMP dynamic test; type: biochemical; conditions: 0.1 to 30 μM; FIG. 1E
T4 construct: purchased BPS bioscience
Protocol: as §1

PDE4B = target: T5, PDE4B (Homo sapiens, UniProt Q07343); test: PDE enzymatic activity, HTRF cAMP dynamic test; type: biochemical; conditions: 3 μM, 10 μM and 30 μM; compared with DMSO control; n=6; FIG. 1B
T5 construct: purchased BPS bioscience
Protocol: as §1

PDE4D = target: T6, PDE4D (Homo sapiens, UniProt Q08499); test: PDE enzymatic activity, HTRF cAMP dynamic test; type: biochemical; conditions: 10 μM and 30 μM; compared with DMSO control; n=6; FIG. 1D
T6 construct: purchased BPS bioscience
Protocol: as §1

IMQ-treated mice = test: Psoriasis-like symptoms in IMQ-treated mice; type: in vivo, BALB/c mice; conditions: applied on back skin once per day for 5 days before IMQ, FIG. 3
Protocol: 250 μg or 500 μg of Ribociclib was dissolved in 50 μl of 0.5% (w/v) methylcellulose 400 solution to make a pharmaceutical composition. The Ribociclib concentration of the pharmaceutical composition was 250 μg/50 μl or 500 μg/50 μl and used in the subsequent animal experimental examples 4 and 5. Male BALB/c mice (7-9 weeks of age, the body weight of each mouse is about 25 g) were divided into different groups, and each group has 6 mice. Each mouse was epilation on the back and then treated with 50 μl of solvent (0.5% methylcellulose 400) or 50 μl of the pharmaceutical composition prepared in example 3 (the concentration of Ribociclib is 10 or 20 mg/kg of body weight) by applying on the nude back skin before topical treatment of imiquimod (IMQ, sold by 3M Health Care Limited). And then applying with or without IMQ on the nude back skin of mice to cause psoriasis-like symptom. Each treatment was given once per day for 5 consecutive days. The mice which applying solvent and IMQ is played as the control. The mice which merely applying solvent is played as the blank.

Human neutrophils = test: Superoxide anion generation in fMLF-stimulated neutrophils (ferricytochrome c reduction); type: cell-based; conditions: 1 μM, 3 μM and 10 μM; fMLF (0.1 μM)/cytochalasin B (1 μg/ml) stimulated; p<0.001 vs control; n=6; FIG. 2
Protocol: The informed consent to participate which was approved by the Institutional Review Board are signed by the donors. 50 mL of blood was collected from the median cubital vein of each donor by sterile vacutainer, and was used to isolate neutrophils for the following experiments. Human neutrophils (isolated from whole blood of donors) were incubated with DMSO (as solvent, marked as “−” in the groups at X-axis in FIGS. 2A and 2B) or Ribociclib (0.3-10 μM) for 5 minutes, and then stimulated the neutrophils with or without fMLF (0.1 μM)/cytochalasin B (CB, 1 μg/ml) for another 10 minutes to activate the neutrophils. The absorbance (OD550) of the reaction mixture was then measured by a spectrophotometer at OD 550 nm. The reading of OD550 is used to detect the reduction of ferricytochrome c, which indicates the amount of superoxide anion. Cytochalasin B was sold by Sigma-Aldrich, catalog number #2506; fMLF was sold by Sigma-Aldrich, catalog number #454454; model number of the spectrophotometer is HITACHI U-3010.

T5 sequence (Q07343 whole entry): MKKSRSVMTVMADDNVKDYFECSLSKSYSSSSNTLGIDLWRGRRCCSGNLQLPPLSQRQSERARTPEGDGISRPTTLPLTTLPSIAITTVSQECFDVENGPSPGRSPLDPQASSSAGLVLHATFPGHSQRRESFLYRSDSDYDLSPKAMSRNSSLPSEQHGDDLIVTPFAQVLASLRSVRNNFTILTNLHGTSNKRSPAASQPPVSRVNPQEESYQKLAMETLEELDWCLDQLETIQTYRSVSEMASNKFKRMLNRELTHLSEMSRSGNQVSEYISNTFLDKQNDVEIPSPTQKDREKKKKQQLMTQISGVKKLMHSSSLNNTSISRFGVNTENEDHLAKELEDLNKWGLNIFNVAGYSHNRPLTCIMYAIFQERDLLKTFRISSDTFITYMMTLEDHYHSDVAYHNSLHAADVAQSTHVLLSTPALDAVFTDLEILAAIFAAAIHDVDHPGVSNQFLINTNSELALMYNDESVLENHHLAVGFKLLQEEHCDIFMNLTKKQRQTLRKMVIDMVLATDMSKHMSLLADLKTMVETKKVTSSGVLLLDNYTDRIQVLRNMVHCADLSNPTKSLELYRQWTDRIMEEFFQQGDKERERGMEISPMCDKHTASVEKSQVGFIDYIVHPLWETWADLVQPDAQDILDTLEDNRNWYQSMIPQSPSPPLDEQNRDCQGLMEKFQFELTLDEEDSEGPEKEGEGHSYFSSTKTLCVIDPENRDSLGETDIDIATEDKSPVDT
T3 sequence (P27815 whole entry): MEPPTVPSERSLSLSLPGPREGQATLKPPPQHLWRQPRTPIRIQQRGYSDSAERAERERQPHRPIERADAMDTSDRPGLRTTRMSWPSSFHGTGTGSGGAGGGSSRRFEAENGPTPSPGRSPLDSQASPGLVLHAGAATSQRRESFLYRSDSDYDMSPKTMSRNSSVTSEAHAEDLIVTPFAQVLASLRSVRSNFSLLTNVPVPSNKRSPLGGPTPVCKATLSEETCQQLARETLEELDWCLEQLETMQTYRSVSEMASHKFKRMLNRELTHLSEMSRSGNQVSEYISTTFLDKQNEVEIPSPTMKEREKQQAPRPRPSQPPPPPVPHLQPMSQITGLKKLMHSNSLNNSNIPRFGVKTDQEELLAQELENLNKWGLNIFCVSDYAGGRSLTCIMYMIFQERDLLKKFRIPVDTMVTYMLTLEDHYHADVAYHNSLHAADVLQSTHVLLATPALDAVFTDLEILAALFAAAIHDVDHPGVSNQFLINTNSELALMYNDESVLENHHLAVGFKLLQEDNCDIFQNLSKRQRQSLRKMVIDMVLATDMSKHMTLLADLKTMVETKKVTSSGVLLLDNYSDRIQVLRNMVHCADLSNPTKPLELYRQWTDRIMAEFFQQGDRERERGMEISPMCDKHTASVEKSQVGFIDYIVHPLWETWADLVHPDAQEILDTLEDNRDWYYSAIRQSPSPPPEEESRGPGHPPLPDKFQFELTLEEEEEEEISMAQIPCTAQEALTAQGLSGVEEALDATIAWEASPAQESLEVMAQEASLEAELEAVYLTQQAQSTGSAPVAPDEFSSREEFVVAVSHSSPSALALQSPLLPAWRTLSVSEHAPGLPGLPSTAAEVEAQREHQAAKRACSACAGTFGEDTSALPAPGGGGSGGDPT
T1 sequence (Q08493 whole entry): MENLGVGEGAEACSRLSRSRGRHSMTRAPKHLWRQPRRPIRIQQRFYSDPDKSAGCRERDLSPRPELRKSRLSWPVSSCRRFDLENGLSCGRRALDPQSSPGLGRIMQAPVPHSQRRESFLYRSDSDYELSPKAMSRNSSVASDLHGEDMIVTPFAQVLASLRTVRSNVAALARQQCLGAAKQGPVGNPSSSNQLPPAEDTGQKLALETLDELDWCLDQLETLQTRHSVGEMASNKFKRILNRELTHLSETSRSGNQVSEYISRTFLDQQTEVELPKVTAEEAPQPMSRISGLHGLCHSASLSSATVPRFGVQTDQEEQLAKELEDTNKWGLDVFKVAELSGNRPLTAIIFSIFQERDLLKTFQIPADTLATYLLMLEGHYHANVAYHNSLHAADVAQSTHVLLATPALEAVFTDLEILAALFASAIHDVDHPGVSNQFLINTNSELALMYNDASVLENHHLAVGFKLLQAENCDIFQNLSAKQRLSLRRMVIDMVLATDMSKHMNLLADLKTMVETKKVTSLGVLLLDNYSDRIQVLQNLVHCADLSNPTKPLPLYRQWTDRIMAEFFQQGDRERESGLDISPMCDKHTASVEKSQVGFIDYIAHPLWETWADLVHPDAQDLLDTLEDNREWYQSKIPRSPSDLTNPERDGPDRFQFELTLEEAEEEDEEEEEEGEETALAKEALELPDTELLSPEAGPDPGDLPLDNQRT
T6 sequence (Q08499 whole entry): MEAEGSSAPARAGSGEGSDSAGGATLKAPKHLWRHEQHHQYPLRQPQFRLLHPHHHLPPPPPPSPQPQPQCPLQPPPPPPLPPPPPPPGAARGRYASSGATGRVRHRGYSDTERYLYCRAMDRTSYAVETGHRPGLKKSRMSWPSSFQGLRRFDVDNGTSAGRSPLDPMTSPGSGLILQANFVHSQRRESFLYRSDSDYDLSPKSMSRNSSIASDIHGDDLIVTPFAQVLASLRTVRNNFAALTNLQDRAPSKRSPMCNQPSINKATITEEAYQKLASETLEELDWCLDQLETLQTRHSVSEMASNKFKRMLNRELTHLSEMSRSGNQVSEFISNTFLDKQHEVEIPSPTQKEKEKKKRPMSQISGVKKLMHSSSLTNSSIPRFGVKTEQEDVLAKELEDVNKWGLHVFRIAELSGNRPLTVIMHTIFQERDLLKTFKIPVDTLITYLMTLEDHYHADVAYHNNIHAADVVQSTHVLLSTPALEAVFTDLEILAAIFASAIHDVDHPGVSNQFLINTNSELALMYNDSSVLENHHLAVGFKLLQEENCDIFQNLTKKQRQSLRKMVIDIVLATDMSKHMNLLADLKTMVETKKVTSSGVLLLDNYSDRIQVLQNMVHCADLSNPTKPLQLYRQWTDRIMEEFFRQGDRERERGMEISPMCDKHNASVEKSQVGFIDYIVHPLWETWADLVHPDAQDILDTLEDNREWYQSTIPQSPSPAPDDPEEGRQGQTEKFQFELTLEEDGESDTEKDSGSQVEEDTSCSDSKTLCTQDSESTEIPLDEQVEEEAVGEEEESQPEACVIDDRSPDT
T4 sequence (Q13370 whole entry): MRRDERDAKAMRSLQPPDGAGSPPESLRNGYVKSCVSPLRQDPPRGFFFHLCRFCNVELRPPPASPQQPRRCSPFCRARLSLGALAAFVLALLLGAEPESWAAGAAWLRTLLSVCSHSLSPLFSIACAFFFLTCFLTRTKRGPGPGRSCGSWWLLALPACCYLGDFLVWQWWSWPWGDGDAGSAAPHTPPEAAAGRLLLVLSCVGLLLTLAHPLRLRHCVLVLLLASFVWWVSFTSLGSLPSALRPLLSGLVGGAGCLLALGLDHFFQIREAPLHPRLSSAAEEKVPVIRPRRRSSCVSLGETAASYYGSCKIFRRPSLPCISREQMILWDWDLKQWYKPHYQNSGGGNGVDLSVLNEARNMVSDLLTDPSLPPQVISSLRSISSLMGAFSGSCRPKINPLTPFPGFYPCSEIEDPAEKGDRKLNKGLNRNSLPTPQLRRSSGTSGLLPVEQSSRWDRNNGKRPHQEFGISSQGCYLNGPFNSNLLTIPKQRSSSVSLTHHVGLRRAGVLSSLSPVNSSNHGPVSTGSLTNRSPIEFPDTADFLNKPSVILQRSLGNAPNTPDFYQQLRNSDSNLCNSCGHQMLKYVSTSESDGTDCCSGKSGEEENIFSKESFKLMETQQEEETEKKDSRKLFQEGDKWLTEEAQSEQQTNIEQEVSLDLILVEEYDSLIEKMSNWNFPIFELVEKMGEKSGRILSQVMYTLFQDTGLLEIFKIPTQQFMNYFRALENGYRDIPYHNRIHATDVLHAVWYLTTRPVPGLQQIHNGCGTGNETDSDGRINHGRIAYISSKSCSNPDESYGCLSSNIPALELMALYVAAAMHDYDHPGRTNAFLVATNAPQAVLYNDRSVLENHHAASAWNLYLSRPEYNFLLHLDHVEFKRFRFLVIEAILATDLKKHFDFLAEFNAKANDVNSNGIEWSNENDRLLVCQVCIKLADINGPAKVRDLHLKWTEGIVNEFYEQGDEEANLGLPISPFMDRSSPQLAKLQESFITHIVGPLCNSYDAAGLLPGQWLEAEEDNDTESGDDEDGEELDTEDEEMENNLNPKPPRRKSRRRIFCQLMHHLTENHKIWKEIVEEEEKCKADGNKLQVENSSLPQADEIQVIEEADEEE
T2 sequence (Q13946 whole entry): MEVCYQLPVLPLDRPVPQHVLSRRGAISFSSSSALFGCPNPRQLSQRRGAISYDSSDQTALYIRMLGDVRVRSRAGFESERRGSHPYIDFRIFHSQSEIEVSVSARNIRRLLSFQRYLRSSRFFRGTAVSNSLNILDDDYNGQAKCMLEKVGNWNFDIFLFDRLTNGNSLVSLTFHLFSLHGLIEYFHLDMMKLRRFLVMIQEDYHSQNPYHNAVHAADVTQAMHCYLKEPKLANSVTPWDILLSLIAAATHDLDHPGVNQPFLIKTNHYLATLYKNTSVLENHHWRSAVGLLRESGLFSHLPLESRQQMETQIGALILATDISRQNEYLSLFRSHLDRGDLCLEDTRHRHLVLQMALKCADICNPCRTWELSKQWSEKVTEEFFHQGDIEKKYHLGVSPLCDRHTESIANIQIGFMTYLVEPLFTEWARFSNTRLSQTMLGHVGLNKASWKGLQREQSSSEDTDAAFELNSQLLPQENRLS

PDE4C activity (PDE4C): significantly inhibit PDE4C activity
PDE7A activity (PDE7A): would not inhibit
PDE4A activity (PDE4A): significantly inhibit PDE4A activity
PDE3B activity (PDE3B): would not inhibit
PDE4B activity (PDE4B): significantly inhibit PDE4B activity
PDE4D activity (PDE4D): significantly inhibit PDE4D activity
SMILES: CN(C)C(=O)c1cc2cnc(Nc3ccc(N4CCNCC4)cn3)nc2n1C1CCCC1 [Ribociclib, 7-Cyclopentyl-N,N-dimethyl-2-{[5-(1-piperazinyl)-2-pyridinyl]amino}-7H-pyrrolo[2,3-d]pyrimidine-6-carboxamide]
psoriasis-like symptoms (IMQ-treated mice; 10 mg/kg of the body weight): can improve or cure the psoriasis-like symptoms
psoriasis-like symptoms (IMQ-treated mice; 20 mg/kg of the body weight): can improve or cure the psoriasis-like symptoms
generation of superoxide anion (Human neutrophils): significantly restrict the generation of superoxide anion
